Measured values from PubChem BioAssay (NCI).
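Exposure lasted 48 hours, with cells grown in 96-well plates and compounds tested at five concentrations. Here, GI50 denotes the concentration required for 50% inhibition of growth. Definition used: TGI = concentration required for complete inhibition of growth.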

Key:
Experiment in all cases: DTP human tumour cell line panel, 48 h
HCT-15 colon = test system: HCT-15 colon
SF-539 CNS = test system: SF-539 CNS
OVCAR-4 ovarian = test system: OVCAR-4 ovarian
SK-OV-3 ovarian = test system: SK-OV-3 ovarian
MALME-3M melanoma = test system: MALME-3M melanoma
HCC-2998 colon = test system: HCC-2998 colon
786-0 renal = test system: 786-0 renal
HT29 colon = test system: HT29 colon
NCI-H226 lung = test system: NCI-H226 lung
SNB-75 CNS = test system: SNB-75 CNS

Row | Structure (SMILES) | GI50 (HCT-15 colon) [µM] | TGI (HCT-15 colon) [µM] | GI50 (SF-539 CNS) [µM] | TGI (SF-539 CNS) [µM] | GI50 (OVCAR-4 ovarian) [µM] | TGI (OVCAR-4 ovarian) [µM] | GI50 (SK-OV-3 ovarian) [µM] | TGI (SK-OV-3 ovarian) [µM] | GI50 (MALME-3M melanoma) [µM] | TGI (MALME-3M melanoma) [µM] | GI50 (HCC-2998 colon) [µM] | TGI (HCC-2998 colon) [µM] | GI50 (786-0 renal) [µM] | TGI (786-0 renal) [µM] | GI50 (HT29 colon) [µM] | TGI (HT29 colon) [µM] | GI50 (NCI-H226 lung) [µM] | TGI (NCI-H226 lung) [µM] | GI50 (SNB-75 CNS) [µM] | TGI (SNB-75 CNS) [µM]
1 | CCc1c2c(nc3ccc(OCc4ccc(B(O)O)cc4)cc13)-c1cc3c(c(=O)n1C2)COC(=O)[C@]3(O)CC | 0.353 | > 43 | < 0.0117 | 0.155 | 0.399 | 29.7 | < 0.01 | 0.347 | 0.0576 | 1.59 | 0.398 | > 66.1 | < 0.0174 | 1.8 | 0.286 | > 37.7 | 0.0187 | 0.339 | < 0.0167 | 0.321
2 | N#C[Se]Cc1cc(-c2ccccc2)n(-c2ccc(S(N)(=O)=O)cc2)n1 | 2.05 | 5.55 | 1.38 | 2.77 | 2.61 | 8.16 | 2.69 | 5.26 | 2.2 | 6.6 | 2.24 | 4.94 | 2.63 | 6.49 | 1.46 | 3.36 | 0.249 | 0.648 | 0.59 | 3.51
3 | Cc1c2cnccc2c(C)c2c1c1cc(C#N)ccc1n2C | 0.0966 | 0.85 | 0.254 | 1.14 | 0.245 | 0.988 | 0.245 | 0.92 | 0.195 | 0.548 | 0.293 | 1.55 | 0.235 | 1.3 | 0.0871 | 1.05 | 0.112 | 0.379 | 0.179 | 0.966
4 | C/C(=N/O)c1cccc(Nc2cc(-n3nnc4ccccc43)nc3ccccc23)c1 | 11.4 | 32.8 | 1.62 | 5.88 | 18.8 | > 100 | 30.5 | > 74.2 | 16.8 | 48 | 10.5 | 23.2 | 4.84 | 31.3 | 12.3 | > 100 | 11.8 | 47.3 | 35.6 | > 100
5 | O=C1Nc2ccccc2C1(O)C/C(=N/O)c1ccc2ccccc2c1 (stereo unspecified) |  | > 100 |  | > 100 |  | > 100 |  | > 100 |  | > 100 |  | > 100 |  | > 100 |  | > 100 |  | > 100 |  | > 100
6 | O=S(=O)(Nc1ccc(Br)cc1)c1ccc(-c2cnc(C3CC3)o2)cc1 | 0.644 | 14.2 | 1.86 | 5.91 | 3.8 | 18 | 2.49 | 14.3 | 1.66 | 17.8 | 2.38 | 15.4 | 5.34 | 20.1 | 0.715 | 15.9 | 6.26 | 25 | 0.518 | 3.35
7 | FC(F)(F)c1cccc(-c2nc3nc(Cl)c(Cl)nc3[nH]2)c1 |  | > 38.6 |  | > 27.7 |  | > 41.6 |  | > 90.1 |  | 12.5 |  | 8.04 |  | > 65.7 |  | 9.2 |  | 13.5 |  | 7.06
8 | COc1cc(/C=C/C(=O)/C=C/c2cc(OC)c3c(c2)OCO3)cc2c1OCO2 | 4.42 | > 100 | 22.6 | > 100 | 52.8 | > 100 | 3.46 | 48.2 | > 100 | > 100 | 1.98 | 3.73 | 9.63 | > 100 | 2.64 | 6.7 | 34.8 | > 100 | 8.55 | 42.5
9 | c1ccc(NN(Cc2cnccn2)c2ccccc2)cc1 |  | > 100 |  | > 100 |  | > 100 |  | > 100 |  | > 100 |  |  |  | > 100 |  | > 100 |  | > 100 |  | > 100
10 | C[C@@H](NC(C#N)c1ccco1)c1ccccc1 (stereo partly specified) |  | > 100 |  | > 100 |  |  |  | > 100 |  | > 100 |  | > 100 |  | > 100 |  | > 100 |  | > 100 |  | > 100
11 | COC(=O)C1=CO[C@@H](OC2CC(CO)C(O)C(O)C2O)[C@@H]2[C@@H](C)[C@@H](OC(=O)/C=C/c3ccccc3)[C@@H](O)[C@H]12 (stereo partly specified) (tested in a mixture with another compound) |  |  |  | > 100 |  | > 100 |  | > 100 |  | > 100 |  | > 100 |  | > 100 |  | > 100 |  | > 100 |  | > 100
12 | O=C1CC(CC(=O)C2CCCCC2=O)C(=O)N1 (stereo unspecified) |  |  |  | > 100 |  | > 100 |  | > 100 |  | > 100 |  | > 100 |  | > 100 |  | > 100 |  | > 100 |  | > 100
